Test results as given in article PMC10349806 (Nature Communications, 2023).
Values joined by “and” are separate entries in the source; they are usually repeats but may differ in a detail not shown here. Equal values may be shown once.

Assays:
PfCRT variant F291A = biological target: T1, PfCRT variant F291A (Plasmodium falciparum, UniProt Q9N623, A220S/F291A/I356T/K76T/M74I/N326S/N75E/Q271E/R371I); assay: CQ uptake assay, oocytes expressing F291A; format: cell-based
T1 sequence (Q9N623 1-424 M74I/N75E/K76T/A220S/Q271E/F291A/N326S/I356T/R371I): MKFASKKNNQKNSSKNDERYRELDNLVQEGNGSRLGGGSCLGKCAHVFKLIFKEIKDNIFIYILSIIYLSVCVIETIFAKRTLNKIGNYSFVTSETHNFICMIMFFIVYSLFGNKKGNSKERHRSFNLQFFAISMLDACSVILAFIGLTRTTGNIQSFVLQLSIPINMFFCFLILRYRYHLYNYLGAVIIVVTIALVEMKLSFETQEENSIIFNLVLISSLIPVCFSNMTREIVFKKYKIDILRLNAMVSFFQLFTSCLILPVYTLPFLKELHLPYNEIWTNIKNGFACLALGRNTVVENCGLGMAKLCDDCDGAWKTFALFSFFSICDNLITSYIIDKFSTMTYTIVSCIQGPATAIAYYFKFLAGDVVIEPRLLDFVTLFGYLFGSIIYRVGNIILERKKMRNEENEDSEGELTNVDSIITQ
Procedure: (§1) Site-directed mutagenesis of PfCRT^Dd2 was performed as described using the megaprimer method with overlap extension[21],[54]. The primer pairs used are listed in Supplementary Table 6. Please note that a codon-optimized and oocyte-adapted version of PfCRT^Dd2 was used[22] (Supplementary Fig. 16). The resulting DNA fragment was cloned into the SP64T expression vector and verified by sequencing.
(§2) Oocytes were obtained as described previously. Briefly, adult (>2 years old) female X. laevis frogs (NASCO) were anesthetized in a cooled solution of ethyl 3-amino benzoate methanesulfonate (0.1%, w/v), followed by a surgical removal of parts of the ovary. The ovary lobes were carefully dissected and small pieces of oocytes were incubated in Ca^2+-free ND96 buffer (96 mM NaCl, 2 mM KCl, 1 mM MgCl2 buffered with 5 mM HEPES/NaOH, pH 7.5) supplemented with collagenase D (0.1%, w/v; Roche), BSA (0.5%, w/v), and 9 mm Na2HPO4 at 18 °C for 14-16 h while gentle shaking. After incubation, the oocytes were carefully washed several times with ND96 buffer (96 mM NaCl, 2 mM KCl, 1.8 mM CaCl2, 1 mM MgCl2 buffered with 5 mM HEPES/NaOH, pH 7.5) supplemented with 100 mg l^−1 gentamycin). Defolliculated and healthy-looking stage V-VI oocytes were manually selected for RNA microinjection. The RNA was generated as following: The codon-optimized sequences of PfCRT variants were cloned into the pSP64T expression vector. After vector linearization using the restriction endonucleases BamHI or SalI (New England Biolabs), transcription was performed using the in vitro SP6 mMessage mMachine Kit (Ambion)[34]. The obtained RNA was kept at −80 °C and diluted with nuclease-free water to a concentration of 0.6 μg μl^−1. Precision-bore glass capillary tubes (3.5-inch glass capillaries; Drummond Scientific Co.) were pulled on a vertical puller (P-87 Flaming/Brown micropipette puller, Sutter Instrument Co.), graduated, and placed on a microinjector (Nanoject II Auto-Nanoliter Injector, Drummond Scientific Co.). 50 nl of nuclease-free water alone (control oocytes) or 50 nl of 0.6 μg μl^−1 RNA were injected under stereomicroscopic control. Injected oocytes were incubated for 46–72 h at 18 °C with twice-daily buffer changes before usage in experiments.
Drug uptake assays were performed as described previously[21],[22],[24],[34]. […] The direction of radio-labeled drug transport is here from the mostly acidic extracellular solution (pH 4.5 or 6.0, as indicated) into the oocyte cytosol (pH ∼ 7.2), which corresponds to the efflux of drug from the acidic digestive vacuole (pH 5.2) into the parasite cytoplasm (pH 7.2). The topology of PfCRT in the oolemma is such that both the N- and C-terminus face the extracellular milieu[3],[22]. In the parasite, the N- and C-terminus face the lumen of the digestive vacuole. CQ uptake kinetics were performed by incubating oocytes in ND96 buffer adjusted to a pH of 4.5, 5.0, 5.5, or 6.0 and supplemented with 50 nM [^3H]CQ and one of 7 different CQ concentrations (10 µM, 50 µM, 100 µM, 200 µM, 300 µM, 400 µM, 500 µM CQ). The reaction was stopped at the 60 min time point, which is in the linear uptake range[22],[34] (Supplementary Fig. 17). […] The radioactivity of each sample was measured using a liquid scintillation analyzer Tri-Carb 4910 TR (PerkinElmer). Oocytes that were injected with water instead of RNA were analyzed in parallel, representing the uptake of a drug by diffusion and/or endogenous permeation pathways. […]

PfCRT variant E207Y = assay: CQ uptake assay, oocytes expressing E207Y; format: cell-based, Plasmodium falciparum
Procedure: as §1, §2
(§3) Drug uptake assays were performed as described previously[21],[22],[24],[34]. […] The direction of radio-labeled drug transport is here from the mostly acidic extracellular solution (pH 4.5 or 6.0, as indicated) into the oocyte cytosol (pH ∼ 7.2), which corresponds to the efflux of drug from the acidic digestive vacuole (pH 5.2) into the parasite cytoplasm (pH 7.2). The topology of PfCRT in the oolemma is such that both the N- and C-terminus face the extracellular milieu[3],[22]. In the parasite, the N- and C-terminus face the lumen of the digestive vacuole. CQ uptake kinetics were performed by incubating oocytes in ND96 buffer adjusted to a pH of 4.5, 5.0, 5.5, or 6.0 and supplemented with 50 nM [^3H]CQ and one of 7 different CQ concentrations (10 µM, 50 µM, 100 µM, 200 µM, 300 µM, 400 µM, 500 µM CQ). The reaction was stopped at the 60 min time point, which is in the linear uptake range[22],[34] (Supplementary Fig. 17). For determination of the amount of drug uptake for each oocyte, the reaction medium was removed and the oocytes were washed three times with 2 ml of ice-cold ND96 buffer. Each oocyte was individually transferred to a scintillation vial containing 5% sodium dodecyl sulfate (200 μl) for lysis. The radioactivity of each sample was measured using a liquid scintillation analyzer Tri-Carb 4910 TR (PerkinElmer). Oocytes that were injected with water instead of RNA were analyzed in parallel, representing the uptake of a drug by diffusion and/or endogenous permeation pathways. The resulting value represents the “background“ level of drug accumulation in oocytes (in-depth discussion in[22]). […]

PfCRT variant E207V = assay: CQ uptake assay, oocytes expressing E207V; format: cell-based, Plasmodium falciparum
Procedure: as §1, §2, §3

PfCRT variant W280A = assay: CQ uptake assay, oocytes expressing W280A; format: cell-based, Plasmodium falciparum
Procedure: as §1, §2, §3

[1] = F291A, 50 µM CQ, 1 h, mean ± SEM
[2] = pH 4.5, single replicates, Fig 1d left
[3] = pH 6.0, single replicates, Fig 1d left
[4] = E207Y, 50 µM CQ, 1 h, mean ± SEM
[5] = pH 4.5, individual replicates, Fig 6b
[6] = pH 6.0, individual replicates, Fig 6b
[7] = ratio of activity pH 4.5 / pH 6.0
[8] = E207V, 50 µM CQ, 1 h, mean ± SEM
[9] = W280A, 50 µM CQ, 1 h, mean ± SEM

CCN(CC)CCCC(C)Nc1ccnc2cc(Cl)ccc12 (centres unmarked) [CQ, chloroquine]
Activity at pH 4.5 (PfCRT variant F291A; [1]): 1.61 ± 0.31 pmol h-1 oocyte-1
Activity at pH 6.0 (PfCRT variant F291A; [1]): 3.23 ± 0.24 pmol h-1 oocyte-1
R-value (PfCRT variant F291A; F291A, CQ transport at pH 4.5 / pH 6.0): 0.52 ± 0.11
F291A transport activity pH 4.5 (PfCRT variant F291A; [2]): 1.94 pmol oocyte-1 h-1 and 2.47 pmol oocyte-1 h-1 and 0.96 pmol oocyte-1 h-1 and 1.07 pmol oocyte-1 h-1
F291A transport activity pH 6.0 (PfCRT variant F291A; [3]): 2.78 pmol oocyte-1 h-1 and 3.29 pmol oocyte-1 h-1 and 4.00 pmol oocyte-1 h-1 and 2.84 pmol oocyte-1 h-1
Activity at pH 4.5 (PfCRT variant E207Y; [4]): 1.70 ± 0.21 pmol h-1 oocyte-1
Activity at pH 6.0 (PfCRT variant E207Y; [4]): 1.84 ± 0.21 pmol h-1 oocyte-1
R-value (PfCRT variant E207Y; E207Y, CQ transport at pH 4.5 / pH 6.0): 0.92 ± 0.06
E207Y transport activity pH 4.5 (PfCRT variant E207Y; [5]): 2.50 pmol oocyte-1 h-1 and 1.56 pmol oocyte-1 h-1 and 1.84 pmol oocyte-1 h-1 and 1.50 pmol oocyte-1 h-1 and 1.10 pmol oocyte-1 h-1
E207Y transport activity pH 6.0 (PfCRT variant E207Y; [6]): 2.64 pmol oocyte-1 h-1 and 1.70 pmol oocyte-1 h-1 and 1.99 pmol oocyte-1 h-1 and 1.61 pmol oocyte-1 h-1 and 1.24 pmol oocyte-1 h-1
E207Y R-value (PfCRT variant E207Y; [7]): 0.95 and 0.92 and 0.93 and 0.89
Activity at pH 4.5 (PfCRT variant E207V; [8]): 2.0 ± 0.13 pmol h-1 oocyte-1
Activity at pH 6.0 (PfCRT variant E207V; [8]): 2.09 ± 0.15 pmol h-1 oocyte-1
R-value (PfCRT variant E207V; E207V, CQ transport at pH 4.5 / pH 6.0): 0.96 ± 0.02
E207V transport activity pH 4.5 (PfCRT variant E207V; [5]): 2.33 pmol oocyte-1 h-1 and 1.85 pmol oocyte-1 h-1 and 1.83 pmol oocyte-1 h-1
E207V transport activity pH 6.0 (PfCRT variant E207V; [6]): 2.45 pmol oocyte-1 h-1 and 1.85 pmol oocyte-1 h-1 and 1.96 pmol oocyte-1 h-1
E207V R-value (PfCRT variant E207V; [7]): 0.95 and 1.00 and 0.93
Activity at pH 4.5 (PfCRT variant W280A; [9]): 0.92 ± 0.11 pmol h-1 oocyte-1
Activity at pH 6.0 (PfCRT variant W280A; [9]): 2.64 ± 0.28 pmol h-1 oocyte-1
R-value (PfCRT variant W280A; W280A, CQ transport at pH 4.5 / pH 6.0): 0.35 ± 0.03
W280A transport activity pH 4.5 (PfCRT variant W280A; [2]): 0.97 pmol oocyte-1 h-1 and 0.58 pmol oocyte-1 h-1 and 1.22 pmol oocyte-1 h-1 and 0.92 pmol oocyte-1 h-1
W280A R-value (PfCRT variant W280A; pH 4.5 vs pH 6.0, Fig 1d left): 0.31 and 0.28 and 0.38 and 0.44
W280A transport activity pH 6.0 (PfCRT variant W280A; [3]): 3.17 pmol oocyte-1 h-1 and 2.06 pmol oocyte-1 h-1 and 3.24 pmol oocyte-1 h-1 and 2.09 pmol oocyte-1 h-1
